Data as given in publication PMC8805316, “NanoBRET in C. elegans illuminates functional receptor interactions in real time” (BMC Molecular and Cell Biology, 2022).
Entries after “also recorded” stand apart in the source; their conditions may differ. Non-standard residues stand in square brackets, D forms with d. Residues, ends and D or L forms follow the SMILES beside them. No end group written: not given here. *: point of attachment. 5TAMRA = CN(C)c1ccc2c(c1)Oc1cc(N(C)C)ccc1C21OC(=O)c2cc(C(=O)*)ccc21; Dap(TAM) = not defined here; Dap = NC[C@H](N)C(=O)O

T1: Nluc::LAT-1 (lat-1p::lat-1(1-249)::Nluc::lat-1(250-650)::GFP::lat-1(651-1015)), expressed in C. elegans (C. elegans, UniProt G5EDW2 28-1014)
T1 sequence (looked up): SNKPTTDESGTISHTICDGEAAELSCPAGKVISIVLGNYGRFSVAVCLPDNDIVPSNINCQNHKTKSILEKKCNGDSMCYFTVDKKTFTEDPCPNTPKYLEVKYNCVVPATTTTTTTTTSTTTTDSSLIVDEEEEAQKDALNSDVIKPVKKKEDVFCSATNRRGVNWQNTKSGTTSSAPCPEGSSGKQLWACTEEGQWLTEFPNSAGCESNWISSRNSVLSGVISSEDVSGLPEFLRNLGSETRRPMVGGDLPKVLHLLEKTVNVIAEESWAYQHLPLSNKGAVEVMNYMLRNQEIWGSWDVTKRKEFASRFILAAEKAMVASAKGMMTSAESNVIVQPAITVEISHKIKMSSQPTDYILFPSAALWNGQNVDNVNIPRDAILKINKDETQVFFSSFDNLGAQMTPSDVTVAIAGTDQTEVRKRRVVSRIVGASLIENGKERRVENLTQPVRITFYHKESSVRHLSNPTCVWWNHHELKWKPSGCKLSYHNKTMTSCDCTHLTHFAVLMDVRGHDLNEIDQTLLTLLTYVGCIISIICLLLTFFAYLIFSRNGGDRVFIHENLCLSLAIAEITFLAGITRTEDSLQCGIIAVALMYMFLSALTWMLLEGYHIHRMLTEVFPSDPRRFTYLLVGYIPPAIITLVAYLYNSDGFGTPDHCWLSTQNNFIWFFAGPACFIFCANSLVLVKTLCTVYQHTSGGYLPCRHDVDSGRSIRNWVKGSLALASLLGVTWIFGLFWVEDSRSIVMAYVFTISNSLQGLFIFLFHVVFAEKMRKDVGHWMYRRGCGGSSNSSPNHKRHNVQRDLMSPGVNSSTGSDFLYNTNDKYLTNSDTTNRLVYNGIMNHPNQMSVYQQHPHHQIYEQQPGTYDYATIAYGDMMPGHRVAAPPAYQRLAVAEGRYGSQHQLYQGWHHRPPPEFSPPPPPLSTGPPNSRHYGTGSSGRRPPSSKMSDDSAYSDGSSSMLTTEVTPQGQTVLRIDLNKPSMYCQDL

B1: TAM-pLAT-1 (TAM-labeled synthetic peptide derived from the tethered agonist sequence of LAT-1) (peptide)
chain: THFAVLMDVRGH-{Dap(TAM)}
modifications: reading uncertain

Tests used:
[1] = test system: empty vector-transfected COS-7 cells; assay: cAMP accumulation assay (AlphaScreen), COS-7 cells with empty vector (Fig. S3C); format: cell-based, African green monkey; conditions: 100 μM peptide, mean ± SEM of 5 independent assays, DMSO control 5.39 ± 2.15
Experimental: (§1) All in vitro experiments were carried out using either HEK293 cells (Homo sapiens, embryonic kidney, DSMZ (German Collection of Microorganisms and Cell Cultures) ACC 305) or COS-7 cells (African green monkey, cercopithecus aethiops, kidney, DSMZ (German Collection of Microorganisms and Cell Cultures) ACC 60). HEK293 cells were kept in Dulbecco’s Modified Eagle’s Medium (DMEM) with Ham’s F-12 (v/v) and 15% (v/v) heat-inactivated fetal calf serum (FCS), while COS-7 cells were cultured in DMEM with 10% (v/v) FCS and 1% (v/v) Penicillin-Streptomycin. All cells were kept at 37 °C under a humidified atmosphere (5% CO2).
Gs-coupling of LAT-1, quantified by detection of intracellular cAMP accumulation, was measured using an AlphaScreen cAMP detection kit (PerkinElmer, USA). Briefly, COS-7 cells (15,000 cells/ well) were transfected in 96-well plates with either 200 ng of LAT-1-encoding plasmid or empty vector using Lipofectamine2000 (ThermoFisher Scientific). […] The following steps were conducted as stated in the manufactures’ protocol of the AlphaScreen cAMP detection kit (PerkinElmer, USA) and an EnVision plate reader (PerkinElmer, USA) was used to detect the fluorescence. The data were analyzed with GraphPad Prism version 6 (GraphPad Software) are presented in x-fold over the corresponding empty vector control.

LAT-1 = assay: cAMP accumulation assay (AlphaScreen), COS-7 cells with LAT-1 plasmid (Fig. S3C); format: cell-based, C. elegans; conditions: for cAMP conc.: LAT-1 plasmid, 100 μM peptide, mean ± SEM of 5 independent assays, DMSO control 4.66 ± 1.72
Experimental: as §1
Gs-coupling of LAT-1, quantified by detection of intracellular cAMP accumulation, was measured using an AlphaScreen cAMP detection kit (PerkinElmer, USA). Briefly, COS-7 cells (15,000 cells/ well) were transfected in 96-well plates with either 200 ng of LAT-1-encoding plasmid or empty vector using Lipofectamine2000 (ThermoFisher Scientific). 48 h post transfection, the cells were stimulated with 100 μM peptide solution in HBSS containing 1 mM 3-isobutyl-1-methylxanthine (IBMX) and 1% DMSO and control buffer without peptide for 30 min at 37 °C. Subsequently, the medium was displaced with lysis buffer (5 mM HEPES, 0.3% Tween-20, 0.1% BSA, 1 mM IBMX, pH 7.6) and plates were frozen at − 80 °C until further use. The following steps were conducted as stated in the manufactures’ protocol of the AlphaScreen cAMP detection kit (PerkinElmer, USA) and an EnVision plate reader (PerkinElmer, USA) was used to detect the fluorescence. The data were analyzed with GraphPad Prism version 6 (GraphPad Software) are presented in x-fold over the corresponding empty vector control.

Nluc::LAT-1 = target: T2, Nluc::LAT-1 (Caenorhabditis elegans, UniProt G5EDW2); assay: biochemical; format: binding, C. elegans
T2 construct: Lat-1p::lat-1(1–249)::Nluc::lat-1(250–650)::GFP::lat-1(651–1015); GFP, inserted between residues 650 and 651 (so in the source); expressed in transfected cells; host or cells: transgenic C. elegans (extrachromosomal array, lat-1 knockout background), incised young adult worms
Experimental: All measurements were conducted using synchronized young adult worms (1 day post L4). Individuals were washed twice with HBSS (Hanks’ balanced salt solution with 25 mM HEPES, pH 7.4, 37 °C) and the number of worms/ μl was calculated.
(§2) For luminescence measurements of intact worms, animals (1; 10; 50; 100 or 500) were directly transferred into the wells of a white flat-bottom 384-well plate in 50 μl HBSS buffer. Worms to be cut were pre-washed with M9 + 0.1% Tween to avoid sticking of worms to the dish and subsequently transferred in 2 ml of HBSS. Incisions were made in the middle of the body with a scalpel blade and worms were immediately afterwards transferred with a glass pipette into HBSS buffer on ice. For mechanically cracking, a worm suspension was homogenized in tubes with 150 μl HBSS and six glass beads (Ø = 3 mm) using with a Precellys homogenizer (Bertin instruments, France) for 40 s at 5000 rpm. Samples were placed on ice until further usage.
For BRET binding assays in vivo, the nanoluciferase (Nluc) was applied as energy donor and either peptides labeled with the TAM fluorophore or the mNeonGreen fluorescent protein fused to a receptor served as acceptor.
30 Nluc-expressing worms with incisions in 50 μl BRET buffer were incubated with dissolving buffer or peptide solutions of final concentrations ranging from 0.05–10 μM in a 384-well plate. During a 25 min incubation with gentle shaking, 10 μl Nano-Glo Live Cell Reagent (N2011, Promega, USA) of a 5x stock were added according to manufacturer’s instructions after 15 min to each well. Competition-binding assays were performed similarly, but additionally, unlabeled peptide (final concentrations 0.016–10 μM) was pipetted into each well and 5 μl of a 10x stock Nano-Glo Live cell reagent was applied after 15 min.
Luminescence (L) and fluorescence (F) were detected with a microplate plate reader (Tecan Spark) using the following filter set: donor = 430–470 nm, acceptor = 550–700 nm with 1000 ms integration time. BRET was calculated by dividing F values by L values. For each experiment, the background signal of donor-only cells was subtracted, such that the BRET ratio at 0 μM ligand equals 0.00. In Fig. 3B (left) and Fig. 3D, the mean of n = 4 (NPR-11) or n = 3 (LAT-1) independent, individually background-corrected single experiments is presented.

Nanoluciferase (Nluc) = assay: Luminescence of luciferase substrate in cut Nluc-expressing worms (Fig. 1E); conditions: vs coelenterazine H
Experimental: as §2
50 prepared worms were transferred into a white flat bottom 384-well plate in a total volume of 50 μl HBSS + 25 mM HEPES (pH 7.4; denoted BRET buffer). Immediately after adding coelenterazine H solution (Nanolight/ Prolume, USA) to a final concentration of 4 μM, luminescence was detected using an EnVision plate reader (PerkinElmer, USA) and a NanoBRET Blue 460/80 nm filter with 1000 ms integration time (five repeats every 5 min for long time observation).

[2] = target: Nluc::NPR-11::eYFP in membranes of transfected HEK293 cells (C. elegans) (UniProt Q18179)
Sequence of Nluc::NPR-11::eYFP in membranes of transfected HEK293 cells (C. elegans) (Q18179 whole entry, the tested form may be a part): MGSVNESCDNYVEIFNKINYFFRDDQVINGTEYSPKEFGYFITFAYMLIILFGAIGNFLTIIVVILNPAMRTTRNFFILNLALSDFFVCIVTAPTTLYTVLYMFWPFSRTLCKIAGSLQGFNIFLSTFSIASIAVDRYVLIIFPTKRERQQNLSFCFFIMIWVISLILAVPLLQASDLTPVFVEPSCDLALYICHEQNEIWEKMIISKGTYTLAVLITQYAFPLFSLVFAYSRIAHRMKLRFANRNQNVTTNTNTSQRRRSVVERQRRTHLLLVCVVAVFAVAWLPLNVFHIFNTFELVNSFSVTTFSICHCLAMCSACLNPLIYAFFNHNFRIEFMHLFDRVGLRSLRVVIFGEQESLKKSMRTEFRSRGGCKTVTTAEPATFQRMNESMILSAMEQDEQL

[3] = target: Nluc::NPR-11 (Nanoluciferase fused to the extracellular N terminus of the neuropeptide receptor NPR-11), expressed in C. elegans (C. elegans) (UniProt Q18179); assay: FRET or BRET; NanoBRET binding in vivo: 30 Nluc-expressing C. elegans (L4 + 1 day) with incisions in 50 μl BRET buffer (HBSS + 25 mM HEPES, pH 7.4), TAM-labeled peptide 0.05-10 μM, 25 min incubation, Nano-Glo Live Cell Reagent (furimazine); Kd from one-site total and nonspecific binding fit with the scrambled peptide as nonspecific
Sequence of Nluc::NPR-11 (Nanoluciferase fused to the extracellular N terminus of the neuropeptide receptor NPR-11), expressed in C. elegans (C. elegans) (Q18179 whole entry, the tested form may be a part): as above

[4] = target: Nluc::NPR-11::eYFP in membranes of transfected HEK293 cells (C. elegans) (UniProt Q18179); assay: FRET or BRET; NanoBRET binding in vitro: membranes of HEK293 cells transiently transfected with Nluc::NPR-11::eYFP (0.5 μg total protein), TAM-labeled peptide 10^-12 M to 10^-5 M, BRET buffer with 0.1% BSA and Pefabloc SC, 10 min, room temperature, coelenterazine H 4 μM; three-parameter logistic …
[5] = target: Nluc::NPR-11 (Nanoluciferase fused to the extracellular N terminus of the neuropeptide receptor NPR-11), expressed in C. elegans (C. elegans) (UniProt Q18179); assay: FRET or BRET; NanoBRET binding in vivo: 30 Nluc-expressing C. elegans (L4 + 1 day) with incisions in 50 μl BRET buffer (HBSS + 25 mM HEPES, pH 7.4), TAM-labeled peptide 0.05-10 μM, 25 min incubation, Nano-Glo Live Cell Reagent (furimazine); Kd from one-site total and nonspecific binding fit with the scrambled peptide as nonspecific; remark: listed apart in the source
[6] = target: T1, Nluc::LAT-1 …; assay: cell-based or functional assay

Molecule	cAMP conc. [1] [nM]	cAMP conc. (LAT-1) [nM]	Kd (Nluc::LAT-1) [nM]	cAMP reporter gene assay, forskolin-stimulated HEK293 cells transfected with NPR-11::eYFP (no Nluc): EC50 of NPR-11 activation [2] [nM]	also measured
CSCC[C@H](NC(=O)[C@H](CC(C)C)NC(=O)[C@@H](NC(=O)[C@H](C)NC(=O)[C@H](Cc1ccccc1)NC(=O)[C@H](Cc1c[nH]cn1)NC(=O)[C@@H](N)[C@@H](C)O)C(C)C)C(=O)N[C@@H](CC(=O)O)C(=O)N[C@H](C(=O)N[C@@H](CCCNC(=N)N)C(=O)NCC(=O)N[C@@H](Cc1c[nH]cn1)C(=O)N[C@@H](CNC(=O)c1ccc2c(c1)C(=O)OC21c2ccc(N(C)C)cc2Oc2cc(N(C)C)ccc21)C(=O)O)C(C)C [TAM-pLAT-1] (H-THFAVLMDVRGH[Dap](5TAMRA)-OH)	2.86 ± 0.60	3.69 ± 0.70	> 10000	–	cAMP accumulation over control (LAT-1; 100 μM, 30 min, 37 °C, IBMX): 1.5 -fold
CSCC[C@H](N)C(=O)N[C@@H](CC(=O)O)C(=O)N[C@H](C(=O)N[C@@H](CCCNC(=N)N)C(=O)N[C@@H](C)C(=O)N[C@H](C(=O)N[C@@H](Cc1c[nH]cn1)C(=O)N[C@@H](Cc1c[nH]cn1)C(=O)NCC(=O)N[C@H](C(=O)N[C@@H](CC(C)C)C(=O)N[C@@H](Cc1ccccc1)C(=O)N[C@@H](CNC(=O)c1ccc2c(c1)C(=O)OC21c2ccc(N(C)C)cc2Oc2cc(N(C)C)ccc21)C(=O)O)C(C)C)C(C)C)[C@@H](C)O [TAM-scrpLAT-1] (H-MDTRAVHHGVLF[Dap](5TAMRA)-OH)	4.45 ± 0.71	4.63 ± 0.81	> 10000	–	cAMP accumulation / receptor activation (LAT-1; 100 μM): did not lead to a cAMP accumulation; also recorded: does not activate the receptor; BRET ratio relative to TAM-pLAT-1 (Nluc::LAT-1; at 10 μM): one-third higher
O=c1c(Cc2ccco2)nc2c(Cc3ccccc3)[nH]c(-c3ccccc3)cn1-2 [furimazine]	–	–	–	–	luminescence signal over time (Nanoluciferase (Nluc)): stable values over the entire time period; also recorded: lower but more stable luminescence signal
FLP-34-1 (unlabeled) (peptide)	–	–	–	2.3	–
TAM-FLP-34-1 (tetramethylrhodamine-labeled FLP-34-1) (peptide)	–	–	–	0.5	increase in the BRET ratio at 10 μM [3]: 0.08; Kd [4]: 388 nM; Kd [5]: 1500 nM
B1	–	–	–	–	cAMP accumulation (AlphaScreen) in COS-7 cells transfected with a LAT-1-encoding plasmid, 100 μM peptide [6]: 1.5 fold over control
